{"source": "patent US6268181A", "about": "“Methods for producing a potentiator of Bacillus pesticidal activity” (Valent BioSciences, Corporation, priority 1998, dated 2001)", "key": {"Phytophthora medicaginis": {"test_system": "Phytophthora medicaginis", "settings": "cited from earlier work"}, "Spodoptera exigua": {"test_system": "Spodoptera exigua", "assay": "Spodoptera exigua micro-bioassay (potentiation of Bt Cry protein by Ia)", "type": "in vivo", "settings": "for Mortality: after 2 days", "description": "Activity is monitored by a Spodoptera exigua micro-bioassay, and purity is determined by capillary electrophoresis. […] The trays containing the various samples are air dried. Two to four 2nd or early 3rd instar Spodoptera exigua are added to the wells containing the dried sample. The wells are sealed with mylar poked with holes and are incubated for 2-3 days at 30° C. Degree of stunting and percent mortality are then recorded. Typically, 5 replicate wells are run for each sample.\n*Mortality = # insects dead/# total insects after 2 days\n.dagger.Stunt score is defined by the average size of the live insect\nlarvae at the end of the bioassay: 4.0 = untreated control, 3.0 = 75% size\nof untreated control, 2.0 = 50% size of untreated control, 1.0 = 25% size\nof untreated control, 0.0 = no growth or size unchanged from start of […]"}, "[1]": {"settings": "Table II, 120 μg/ml, without Ia"}, "[2]": {"settings": "Table II, 240 μg/ml, without Ia"}}}
{"compound": "NC(=O)NCC(NC(=O)C(O)C(O)C(N)C(O)CC(O)C(N)CO)C(N)=O", "note": "(stereo not shown) [zwittermicin A]", "values": [{"measurement": "infection of alfalfa", "setting": "Phytophthora medicaginis; alfalfa", "result": "reduces the infection"}, {"measurement": "growth of Phytophthora medicaginis", "setting": "Phytophthora medicaginis; plant pathogen", "result": "inhibits the growth"}]}
{"compound": "CryIA(c): Bt crystal delta-endotoxin; truncated in Table I, full-length (130 kDa) in Table II", "values": [{"measurement": "Stunt Score", "setting": "Spodoptera exigua; Table II, 0.8 μg/ml, with Ia", "result": 1.6}, {"measurement": "Mortality", "setting": "Spodoptera exigua; Table II, 0.8 μg/ml, with Ia", "result": "2/5"}, {"measurement": "Stunt Score", "setting": "Spodoptera exigua; Table II, 3 μg/ml, with Ia", "result": 1.0}, {"measurement": "Mortality", "setting": "Spodoptera exigua; Table II, 3 μg/ml, with Ia", "result": "4/5"}, {"measurement": "Stunt Score", "setting": "Spodoptera exigua; Table II, 15 μg/ml, with Ia", "result": 0.0}, {"measurement": "Mortality", "setting": "Spodoptera exigua; Table II, 15 μg/ml, with Ia", "result": "4/5"}, {"measurement": "Mortality", "setting": "Spodoptera exigua; Table II, 30 μg/ml, with Ia", "result": "5/5"}, {"measurement": "Stunt Score", "setting": "Spodoptera exigua; Table II, 30 μg/ml, without Ia", "result": 4.0}, {"measurement": "Mortality", "setting": "Spodoptera exigua; Table II, 30 μg/ml, without Ia", "result": "0/5"}, {"measurement": "Mortality", "setting": "Spodoptera exigua; Table II, 60 μg/ml, with Ia", "result": "5/5"}, {"measurement": "Stunt Score", "setting": "Spodoptera exigua; Table II, 60 μg/ml, without Ia", "result": 2.2}, {"measurement": "Mortality", "setting": "Spodoptera exigua; Table II, 60 μg/ml, without Ia", "result": "0/5"}, {"measurement": "Stunt Score", "setting": "Spodoptera exigua; [1]", "result": 2.2}, {"measurement": "Mortality", "setting": "Spodoptera exigua; [1]", "result": "0/5"}, {"measurement": "Stunt Score", "setting": "Spodoptera exigua; [2]", "result": 0.5}, {"measurement": "Mortality", "setting": "Spodoptera exigua; [2]", "result": "1/5"}, {"measurement": "concentration giving same mortality/stunt score as protein with Ia", "setting": "Spodoptera exigua; protein alone, full-length CryIA(c), CryII, CryIC", "result": 240, "unit": "µg/mL"}, {"measurement": "Mortality", "setting": "Spodoptera exigua; truncated Bt protein, OD280 0.0006, with Ia", "result": "1/5"}, {"measurement": "Stunt Score", "setting": "Spodoptera exigua; truncated Bt protein, OD280 0.0006, with Ia, 4.0 = untreated control, 0.0 = no growth", "result": 1.0}, {"measurement": "Mortality", "setting": "Spodoptera exigua; truncated Bt protein, OD280 0.0012, with Ia", "result": "0/5"}, {"measurement": "Stunt Score", "setting": "Spodoptera exigua; truncated Bt protein, OD280 0.0012, with Ia, 4.0 = untreated control, 0.0 = no growth", "result": 1.0}, {"measurement": "Mortality", "setting": "Spodoptera exigua; truncated Bt protein, OD280 0.0025, with Ia", "result": "2/5"}, {"measurement": "Stunt Score", "setting": "Spodoptera exigua; truncated Bt protein, OD280 0.0025, with Ia, 4.0 = untreated control, 0.0 = no growth", "result": 2.0}, {"measurement": "Mortality", "setting": "Spodoptera exigua; truncated Bt protein, OD280 0.005, with Ia", "result": "1/5"}, {"measurement": "Stunt Score", "setting": "Spodoptera exigua; truncated Bt protein, OD280 0.005, with Ia, 4.0 = untreated control, 0.0 = no growth", "result": 0.0}, {"measurement": "Mortality", "setting": "Spodoptera exigua; truncated Bt protein, OD280 0.010, with Ia", "result": "0/5"}, {"measurement": "Stunt Score", "setting": "Spodoptera exigua; truncated Bt protein, OD280 0.010, with Ia, 4.0 = untreated control, 0.0 = no growth", "result": 0.2}, {"measurement": "Mortality", "setting": "Spodoptera exigua; truncated Bt protein, OD280 0.020, with Ia", "result": "1/5"}, {"measurement": "Stunt Score", "setting": "Spodoptera exigua; truncated Bt protein, OD280 0.020, with Ia, 4.0 = untreated control, 0.0 = no growth", "result": 0.0}, {"measurement": "Mortality", "setting": "Spodoptera exigua; truncated Bt protein, OD280 0.020, without Ia", "result": "0/5"}, {"measurement": "Stunt Score", "setting": "Spodoptera exigua; truncated Bt protein, OD280 0.020, without Ia, 4.0 = untreated control, 0.0 = no growth", "result": 2.8}, {"measurement": "Mortality", "setting": "Spodoptera exigua; truncated Bt protein, OD280 0.040, without Ia", "result": "0/5"}, {"measurement": "Stunt Score", "setting": "Spodoptera exigua; truncated Bt protein, OD280 0.040, without Ia, 4.0 = untreated control, 0.0 = no growth", "result": 2.6}, {"measurement": "Mortality", "setting": "Spodoptera exigua; truncated Bt protein, OD280 0.075, without Ia", "result": "0/5"}, {"measurement": "Stunt Score", "setting": "Spodoptera exigua; truncated Bt protein, OD280 0.075, without Ia, 4.0 = untreated control, 0.0 = no growth", "result": 3.4}, {"measurement": "OD280 giving same stunt score as protein with Ia", "setting": "Spodoptera exigua; truncated CryIA(c), tested alone", "result": 0.075, "unit": "OD280"}, {"measurement": "OD280 giving same stunt score as protein alone", "setting": "Spodoptera exigua; truncated CryIA(c), with Ia", "result": 0.0006, "unit": "OD280"}, {"measurement": "concentration giving same mortality/stunt score as protein alone", "setting": "Spodoptera exigua; with Ia, full-length CryIA(c), CryII inclusions, CryIC inclusions", "result": 0.75, "unit": "µg/mL"}]}
